From paper PMC7255801, “Disease-associated mutations in the human TRPM3 render the channel overactive via two distinct mechanisms” (eLife, 2020)

Molecular target: T1, hTRPM3_1325 V990M (Homo sapiens, UniProt Q9HCF6, V1015M)
T1 construct: expressed in transfected cells; host or cells: Xenopus laevis oocytes (cRNA injection)
T1 sequence (Q9HCF6 1-1325 isoform Q9HCF6-10 V990M): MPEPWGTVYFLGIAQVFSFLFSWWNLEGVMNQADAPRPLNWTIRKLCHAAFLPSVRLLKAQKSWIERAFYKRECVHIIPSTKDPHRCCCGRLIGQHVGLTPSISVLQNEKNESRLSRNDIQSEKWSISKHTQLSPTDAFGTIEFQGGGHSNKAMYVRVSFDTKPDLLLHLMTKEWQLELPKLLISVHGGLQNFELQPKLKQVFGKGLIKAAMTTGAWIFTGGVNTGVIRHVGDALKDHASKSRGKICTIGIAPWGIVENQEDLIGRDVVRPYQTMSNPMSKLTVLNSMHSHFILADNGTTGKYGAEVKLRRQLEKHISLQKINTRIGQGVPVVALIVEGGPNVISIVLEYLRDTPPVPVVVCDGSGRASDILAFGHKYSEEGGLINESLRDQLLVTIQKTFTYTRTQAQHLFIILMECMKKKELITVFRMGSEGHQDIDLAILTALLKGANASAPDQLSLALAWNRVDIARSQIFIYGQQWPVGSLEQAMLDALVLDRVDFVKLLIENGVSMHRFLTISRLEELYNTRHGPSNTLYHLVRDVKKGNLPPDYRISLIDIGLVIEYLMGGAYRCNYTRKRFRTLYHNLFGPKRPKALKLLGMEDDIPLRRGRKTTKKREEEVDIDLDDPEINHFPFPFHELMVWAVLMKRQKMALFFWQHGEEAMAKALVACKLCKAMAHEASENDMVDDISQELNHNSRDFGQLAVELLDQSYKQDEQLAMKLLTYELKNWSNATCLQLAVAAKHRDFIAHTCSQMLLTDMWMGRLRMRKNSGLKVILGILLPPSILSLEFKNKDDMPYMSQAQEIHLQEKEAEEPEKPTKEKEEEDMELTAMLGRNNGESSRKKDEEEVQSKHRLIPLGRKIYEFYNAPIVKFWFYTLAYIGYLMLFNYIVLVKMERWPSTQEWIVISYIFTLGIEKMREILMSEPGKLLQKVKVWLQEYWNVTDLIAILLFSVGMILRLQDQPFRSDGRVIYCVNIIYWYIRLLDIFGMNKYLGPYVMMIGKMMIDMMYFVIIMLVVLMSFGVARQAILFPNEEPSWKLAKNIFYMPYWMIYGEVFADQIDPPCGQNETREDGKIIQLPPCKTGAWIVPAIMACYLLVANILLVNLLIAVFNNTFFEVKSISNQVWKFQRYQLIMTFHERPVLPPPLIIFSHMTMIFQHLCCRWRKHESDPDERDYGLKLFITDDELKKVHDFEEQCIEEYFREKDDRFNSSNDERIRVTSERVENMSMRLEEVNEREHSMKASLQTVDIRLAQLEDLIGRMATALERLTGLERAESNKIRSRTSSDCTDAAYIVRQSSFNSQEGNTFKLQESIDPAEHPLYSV
Assay: Two electrode voltage clamp in Xenopus oocytes, V990M mutant
Type: cell-based
Settings: V990M compared with P1090Q, 50 μM, 100 and −100 mV, room temperature (20–22°C)
Procedure: Xenopus laevis oocytes were prepared as described earlier ([Badheka et al., 2015]). All animal procedures were approved by the Institutional Animal Care and Use Committee at Rutgers New Jersey Medical School. In brief, frogs were anesthetized in 0.25% ethyl 3-aminobenzoate methanesulfonate solution (MS222; Sigma-Aldrich); bags of ovaries were removed surgically from the anesthetized frogs. Individual oocytes were obtained by overnight digestion at 16°C in 0.2–0.3 mg/ml type 1A collagenase (Sigma-Aldrich), dissolved in a solution containing 82.5 mM NaCl, 2 mM KCl, 1 mM MgCl2, and […] HEPES, pH 7.4 (OR2 solution). The next day the collagenase containing solution was discarded and the oocytes were washed multiple times with OR2 solution. […]
Two electrode voltage clamp experiments were performed as described ([Badheka et al., 2015]). In brief, oocytes were placed in extracellular solution (97 mM NaCl, 2 mM KCl, 1 mM MgCl2, and […] HEPES, pH 7.4), and currents were recorded with thin-wall inner filament– containing glass pipettes (World Precision Instruments) filled with 3 M KCl in 1% agarose. Currents were measured with a ramp protocol from −100 to 100 mV once every 0.5 s with a GeneClamp 500B amplifier and analyzed with the pClamp 9.0 software (Molecular Devices). […]

Structure (SMILES): CCC1(c2ccccc2)C(=O)NCNC1=O [primidone]
- Inhibition of basal current: significantly larger inhibition
